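Method: 48-hour compound exposure of cells in 96-well plates, five concentrations, linear interpolation of endpoints. Here, GI50 denotes the concentration required for 50% inhibition of growth. TGI is the concentration that stops growth completely.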
Columns and labels:
Assay in all cases: NCI anticancer screen, dose series, 48 h; in the data active = GI50 below about 0.43 µM; inactive = the rest
[1] = test system: PC-3 prostate
[2] = test system: HT29 colon
[3] = test system: RXF 393 renal
[4] = test system: 786-0 renal
[5] = test system: HCT-116 colon
[6] = test system: OVCAR-4 ovarian
[7] = test system: IGROV1 ovarian
[8] = test system: MDA-MB-231 breast
[9] = test system: SK-OV-3 ovarian
[10] = test system: MALME-3M melanoma
[11] = test system: NCI-H226 lung
[12] = test system: SF-295 CNS
[13] = test system: SK-MEL-2 melanoma
[14] = test system: UO-31 renal
[15] = test system: DU-145 prostate
[16] = test system: OVCAR-3 ovarian
[17] = test system: HL-60(TB) leukemia
[18] = test system: SNB-19 CNS
[19] = test system: ACHN renal
[20] = test system: RPMI-8226 leukemia
[21] = test system: SF-268 CNS
[22] = test system: HCC-2998 colon
[23] = test system: SK-MEL-5 melanoma
[24] = test system: NCI-H522 lung
[25] = test system: EKVX NSCLC
[26] = test system: U251 CNS
[27] = test system: SN12C renal
[28] = test system: OVCAR-8 ovarian
[29] = test system: SNB-75 CNS
[30] = test system: HS 578T breast
[31] = test system: SK-MEL-28 melanoma
[32] = test system: HCT-15 colon
[33] = test system: OVCAR-5 ovarian
[34] = test system: M14 melanoma
[35] = test system: HOP-62 NSCLC
[36] = test system: SW-620 colon
[37] = test system: MCF7 breast
[38] = test system: COLO 205 colon
[39] = test system: T-47D breast
[40] = test system: SR leukemia
[41] = test system: A498 renal
[42] = test system: A549 NSCLC
[43] = test system: MDA-MB-435
[44] = test system: BT-549 breast
[45] = test system: TK-10 renal
[46] = test system: KM12 colon
[47] = test system: CAKI-1 renal
[48] = test system: SF-539 CNS
[49] = test system: UACC-62 melanoma
[50] = test system: HOP-92 NSCLC
[51] = test system: LOX IMVI melanoma
[52] = test system: NCI/ADR-RES ovarian
[53] = test system: MOLT-4 leukemia
[54] = test system: UACC-257 melanoma
[55] = test system: NCI-H460 lung
[56] = test system: CCRF-CEM leukemia
[57] = test system: NCI-H23 lung
[58] = test system: K-562 leukemia

COc1ccc2c(c1)CC[C@@H]1[C@@H]2CC[C@]2(C)c3[nH]ncc3C[C@@H]12
48.8 µM: TGI [47]
32.8 µM: TGI [20]
27 µM: TGI [10]
16.4 µM: TGI [23]
15.3 µM: TGI [40]
40.6 µM: TGI [53]
42 µM: TGI [48]
27.5 µM: TGI [12]
44.5 µM: TGI [43]
29.4 µM: TGI [54]
9.84 µM: TGI [17]
31.9 µM: TGI [5]
21.6 µM: TGI [46]
inactive: GI50 [1] 18.2 µM | GI50 [2] 15 µM | GI50 [3] 11.3 µM | GI50 [4] 18.2 µM | GI50 [5] 12.3 µM | GI50 [6] 15.4 µM | GI50 [7] 21.9 µM | GI50 [8] 11.5 µM | GI50 [9] 35.7 µM | GI50 [10] 11.7 µM | GI50 [11] 16.6 µM | GI50 [12] 12.6 µM | GI50 [13] 17 µM | GI50 [14] 19.6 µM | GI50 [15] 20.6 µM | GI50 [16] 8.9 µM | GI50 [17] 1.64 µM | GI50 [18] 21.4 µM | GI50 [19] 19 µM | GI50 [20] 10.2 µM | GI50 [21] 19.6 µM | GI50 [22] 13.7 µM | GI50 [23] 8.16 µM | GI50 [24] 10.3 µM | GI50 [25] 16.3 µM | GI50 [26] 18.2 µM | GI50 [27] 18 µM | GI50 [28] 15.6 µM | GI50 [29] 21.9 µM | GI50 [30] 17.5 µM | GI50 [31] 32.1 µM | GI50 [32] 16.8 µM | GI50 [33] 20.2 µM | GI50 [34] 16.4 µM | GI50 [35] 24.7 µM | GI50 [36] 16.1 µM | GI50 [37] 13.4 µM | GI50 [38] 14.5 µM | GI50 [39] 10.9 µM | GI50 [40] 2.14 µM | GI50 [41] 25.9 µM | GI50 [42] 15.2 µM | GI50 [43] 14.7 µM | GI50 [44] 26 µM | GI50 [45] 27 µM | GI50 [46] 10.1 µM | GI50 [47] 16.2 µM | GI50 [48] 14.8 µM | GI50 [49] 17.2 µM | GI50 [50] 14.4 µM | GI50 [51] 10.8 µM | GI50 [52] 15.8 µM | GI50 [53] 1.8 µM | GI50 [54] 11.3 µM
35.3 µM: TGI [22]
35.7 µM: TGI [37]
33.3 µM: TGI [51]
33 µM: TGI [39]
28 µM: TGI [3]
> 50 µM: TGI [1] | TGI [2] | TGI [4] | TGI [6] | TGI [7] | TGI [8] | TGI [9] | TGI [11] | TGI [13] | TGI [14] | TGI [15] | TGI [18] | TGI [19] | TGI [21] | TGI [25] | TGI [26] | TGI [27] | TGI [28] | TGI [29] | TGI [30] | TGI [31] | TGI [32] | TGI [33] | TGI [34] | TGI [35] | TGI [36] | TGI [38] | TGI [41] | TGI [42] | TGI [44] | TGI [45] | TGI [49] | TGI [50] | TGI [52]
27.4 µM: TGI [24]
18.6 µM: TGI [16]

COc1ccc(C2=CC(c3ccc(Oc4ccnc5cc(Cl)ccc45)c(OC)c3)c3c(nc(OC)[nH]c3=O)N2)cc1 (stereo unspecified)
47.2 µM: TGI [24]
45.5 µM: TGI [17]
> 100 µM: TGI [1] | TGI [2] | TGI [3] | TGI [4] | TGI [5] | TGI [6] | TGI [7] | TGI [8] | TGI [9] | TGI [10] | TGI [11] | TGI [12] | TGI [13] | TGI [14] | TGI [15] | TGI [16] | TGI [18] | TGI [19] | TGI [21] | TGI [22] | TGI [26] | TGI [27] | TGI [28] | TGI [55] | TGI [56] | TGI [29] | TGI [57] | TGI [30] | TGI [31] | TGI [32] | TGI [33] | TGI [34] | TGI [35] | TGI [36] | TGI [37] | TGI [38] | TGI [39] | TGI [41] | TGI [42] | TGI [43] | TGI [44] | TGI [46] | TGI [47] | TGI [48] | TGI [58] | TGI [52] | TGI [54]
35.7 µM: TGI [49]
67.2 µM: TGI [51]
64.6 µM: TGI [40]
7.27 µM: TGI [20]
34.1 µM: TGI [23]
inactive: GI50 [1] 6.29 µM | GI50 [2] 4.24 µM | GI50 [3] 21.8 µM | GI50 [4] 18.4 µM | GI50 [5] 3.62 µM | GI50 [6] 6.69 µM | GI50 [7] 26 µM | GI50 [8] 8.62 µM | GI50 [9] > 100 µM | GI50 [10] > 100 µM | GI50 [11] 16.4 µM | GI50 [12] 6.42 µM | GI50 [13] 31.6 µM | GI50 [14] 5.97 µM | GI50 [15] 10.3 µM | GI50 [16] 6.46 µM | GI50 [17] 3.51 µM | GI50 [18] 61.4 µM | GI50 [19] 5.24 µM | GI50 [20] 2.73 µM | GI50 [21] 5.09 µM | GI50 [22] > 100 µM | GI50 [23] 7.28 µM | GI50 [24] 3.18 µM | GI50 [26] 6.94 µM | GI50 [27] 7.03 µM | GI50 [28] 4.85 µM | GI50 [55] 6.51 µM | GI50 [56] 3.25 µM | GI50 [29] 9.44 µM | GI50 [57] 9.03 µM | GI50 [30] 7.04 µM | GI50 [31] 45.3 µM | GI50 [32] 3.85 µM | GI50 [33] 24.6 µM | GI50 [34] 88.4 µM | GI50 [35] 84.9 µM | GI50 [36] 4.34 µM | GI50 [37] 3.56 µM | GI50 [38] 79.9 µM | GI50 [39] 6.83 µM | GI50 [40] 2.91 µM | GI50 [41] 48 µM | GI50 [42] 5.66 µM | GI50 [43] 5.06 µM | GI50 [44] 3.99 µM | GI50 [46] 5.91 µM | GI50 [47] 15.5 µM | GI50 [48] 20.7 µM | GI50 [49] 4.39 µM | GI50 [58] 3.73 µM | GI50 [51] 4.04 µM | GI50 [52] 9.88 µM | GI50 [54] 26.4 µM
